Experimental data published in EPA's CvTdb concentration-time database.

What was measured:
Rat [1] = test: concentration in plasma after dosing; details: dosed: Potassium Perfluorobutane Sulfonate, 4 mg/kg, iv, Male, F344
Rat [2] = test: concentration in plasma after dosing; details: 0.75 h; dosed: Potassium Perfluorobutane Sulfonate; 4 mg/kg; iv; Female; Harlan Sprague-Dawley
Rat [3] = test: concentration in kidney after dosing; details: 6 h; dosed: Potassium Perfluorobutane Sulfonate; 20 mg/kg; oral; Male; Harlan Sprague Dawley
Rat [4] = test: concentration in plasma after dosing; details: dosed: Potassium Perfluorobutane Sulfonate, 20 mg/kg, oral, Male, Harlan Sprague Dawley
Rat [5] = test: concentration in plasma after dosing; details: dosed: Potassium Perfluorobutane Sulfonate, 20 mg/kg, oral, Male, Harlan Sprague Dawley; remark: listed apart in the source
Rat [6] = test: concentration in plasma after dosing; details: 0.25 h; dosed: Potassium Perfluorobutane Sulfonate; 4 mg/kg; iv; Male; F344
Rat [7] = test: concentration in plasma after dosing; details: dosed: Nitrite, 20 mg/kg, iv, Male, F344
Rat [8] = test: concentration in plasma after dosing; details: 0.5 h; dosed: Nitrite; 80 mg/kg; oral; Female; F344
Rat [9] = test: concentration in plasma after dosing; details: dosed: Nitrite, 20 mg/kg, iv, Male, F344; remark: listed apart in the source
Rat [10] = test: concentration in plasma after dosing; details: dosed: Nitrite, 80 mg/kg, oral, Female, F344
Rat [11] = test: concentration in plasma after dosing; details: 20 min; dosed: Nitrite; 20 mg/kg; iv; Male; F344
Rat [12] = test: concentration in plasma after dosing; details: 5 min; dosed: Nitrite; 40 mg/kg; oral; Female; F344
Rat [13] = test: concentration in plasma after dosing; details: 0.5 h; dosed: Nitrite; 20 mg/kg; iv; Male; F344
Rat [14] = test: concentration in plasma after dosing; details: dosed: 2-Hydroxy-4-methoxybenzophenone, 100 mg/kg, oral, Female, F344
Mouse [15] = test: concentration in plasma after dosing; details: 0.25 h; dosed: 2-Hydroxy-4-methoxybenzophenone; 500 mg/kg; oral; Female; B6C3F1
Rat [16] = test: concentration in plasma after dosing; details: dosed: 2-Hydroxy-4-methoxybenzophenone, 250 mg/kg, oral, Female, F344
Mouse [17] = test: concentration in plasma after dosing; details: 2.5 min; dosed: 2-Hydroxy-4-methoxybenzophenone; 250 mg/kg; oral; Male; B6C3F1
Rat [18] = test: concentration in plasma after dosing; details: 6 h; dosed: 2-Hydroxy-4-methoxybenzophenone; 500 mg/kg; oral; Male; F344
Mouse [19] = test: concentration in plasma after dosing; details: dosed: 2-Hydroxy-4-methoxybenzophenone, 100 mg/kg, oral, Male, B6C3F1
Rat [20] = test: concentration in plasma after dosing; details: dosed: 2-Hydroxy-4-methoxybenzophenone, 500 mg/kg, oral, Male, F344
rat [21] = test: concentration in blood after dosing; negative times count back from the end of exposure; details: dosed: methanol, inhalation, duration: 6 hr, male
Rat [22] = test: concentration in liver after dosing; details: 0.5 h; dosed: Fluorotelomer alcohol 8+2; 80 mg/kg; oral; Female; Harlan Sprague Dawley
Rat [23] = test: concentration in brain after dosing; details: 12 h; dosed: Perfluorooctanoic acid; 12 mg/kg; oral; Male; Harlan Sprague Dawley
Rat [24] = test: concentration in liver after dosing; details: 6 h; dosed: Perfluorooctanoic acid; 12 mg/kg; oral; Male; Harlan Sprague Dawley
Rat [25] = test: concentration in brain after dosing; details: 24 h; dosed: Perfluorooctanoic acid; 12 mg/kg; oral; Male; Harlan Sprague Dawley
Rat [26] = test: concentration in brain after dosing; details: 3 h; dosed: Perfluorooctanoic acid; 80 mg/kg; oral; Female; Harlan Sprague Dawley
Rat [27] = test: concentration in liver after dosing; details: 1200 h; dosed: Perfluorooctanoic acid; 12 mg/kg; oral; Male; Harlan Sprague Dawley
Rat [28] = test: concentration in liver after dosing; details: 12 h; dosed: Perfluorooctanoic acid; 80 mg/kg; oral; Female; Harlan Sprague Dawley
Rat [29] = test: concentration in kidney after dosing; details: 6 h; dosed: Perfluorooctanoic acid; 80 mg/kg; oral; Female; Harlan Sprague Dawley
Rat [30] = test: concentration in kidney after dosing; details: 12 h; dosed: Fluorotelomer alcohol 8+2; 24 mg/kg; oral; Male; Harlan Sprague Dawley
Rat [31] = test: concentration in kidney after dosing; details: 0.5 h; dosed: Fluorotelomer alcohol 8+2; 80 mg/kg; oral; Female; Harlan Sprague Dawley
Rat [32] = test: concentration in kidney after dosing; details: 6 h; dosed: Fluorotelomer alcohol 8+2; 80 mg/kg; oral; Female; Harlan Sprague Dawley
Rat [33] = test: concentration in kidney after dosing; details: 1200 h; dosed: Perfluorooctanoic acid; 12 mg/kg; oral; Male; Harlan Sprague Dawley

O=S(=O)([O-])C(F)(F)C(F)(F)C(F)(F)C(F)(F)F.[K+] [Potassium Perfluorobutane Sulfonate]
Details	concentration in plasma [ng/mL]
Rat [1], 3 h	10200
Rat [1], 5 min	29400
Rat [4], 0.25 h	24800
Rat [4], 24 h	848
Rat [5], 5 min	1130
Rat [5], 9 h	13200

Details	concentration in kidney [ng/g]	concentration in plasma [ng/mL]
Rat [2]	–	6450
Rat [3]	13100	–
Rat [6]	–	17900

O=N[O-] [Nitrite]
concentration in plasma [µg/mL]
Details	0.5 h	0.75 h	2 min	4 h
Rat [7]	–	3.4	14.3	–
Rat [9]	–	4.4	9	–
Rat [10]	20.5	–	–	4.9

Details	concentration in plasma [µg/mL]
Rat [8]	69.3
Rat [11]	7.6
Rat [12]	8.5
Rat [13]	8.1

COc1ccc(C(=O)c2ccccc2)c(O)c1 [2-Hydroxy-4-methoxybenzophenone]
Details	concentration in plasma [µg/mL]
Mouse [19], 0.25 h	0.113
Mouse [19], 2 h	0.0241
Mouse [19], 2.5 min	0.0848
Mouse [19], 3 h	0.0186
Mouse [19], 10 min	0.0278
Rat [14], 3 h	0.0136
Rat [14], 10 min	0.0278
Rat [16], 0.25 h	0.453
Rat [16], 4 h	0.019
Rat [20], 10 h	0.0804
Rat [20], 10 min	0.113

Details	concentration in plasma [µg/mL]
Mouse [15]	0.411
Mouse [17]	0.022
Rat [18]	0.293

CO [methanol]
rat [21]
Details	concentration in blood [µg/mL]
-206 s, 2000 ppm, Fischer-344, during exposure	80.6
-5.613 h, 2000 ppm, Fischer-344, during exposure	18.9
-5.151 h, 2000 ppm, Fischer-344, during exposure	24.3
-3.08 h, 2000 ppm, Fischer-344, during exposure	59.9
0.4288 h, 200 ppm, CDF(F344)/CrlBR	2.41
0.9278 h, 200 ppm, CDF(F344)/CrlBR	2.01
1.006 h, 2000 ppm, Fischer-344	83.8
1.926 h, 200 ppm, CDF(F344)/CrlBR	1.4
2.976 h, 2000 ppm, Fischer-344	53.3
2.996 h, 200 ppm, CDF(F344)/CrlBR	1.2
4.511 h, 200 ppm, CDF(F344)/CrlBR	1.51
5.974 h, 2000 ppm, Fischer-344	16.7
8.995 h, 2000 ppm, Fischer-344	0.702
11.92 h, 2000 ppm, Fischer-344	0.702

rat [21], 200 ppm, CDF(F344)/CrlBR, during exposure
Details	concentration in blood [µg/mL]
-5.615 h	1.4
-5.115 h	4.52
-3.047 h	3.11
-0.07 h	3.51

O=C(O)C(F)(F)C(F)(F)C(F)(F)C(F)(F)C(F)(F)C(F)(F)C(F)(F)F [Perfluorooctanoic acid]
Details	concentration in brain [ng/g]	concentration in kidney [ng/g]	concentration in liver [ng/g]
Rat [22]	–	–	579
Rat [23]	1260	–	–
Rat [24]	–	–	63400
Rat [25]	1290	–	–
Rat [26]	3490	–	–
Rat [27]	–	–	4980
Rat [28]	–	–	59900
Rat [29]	–	178000	–
Rat [30]	–	581	–
Rat [31]	–	360	–
Rat [32]	–	2040	–
Rat [33]	–	695	–
